# Results taken from article PMC8863579, “Effects of pharmacological inhibition of the sodium‐dependent phosphate cotransporter 2b (NPT2b) on intestinal phosphate absorption in mouse and rat models” (Pharmacology Research & Perspectives, 2022).
# Read-outs that look alike come from different tables or passages of the source.
# Biological target: T1, intestinal NPT2b (Mus musculus, UniProt Q9DBP0)
# T1 construct: from tissue; host or cells: intestine of live male C57BL/6 mice, oral dosing
# T1 sequence (Q9DBP0 1-697): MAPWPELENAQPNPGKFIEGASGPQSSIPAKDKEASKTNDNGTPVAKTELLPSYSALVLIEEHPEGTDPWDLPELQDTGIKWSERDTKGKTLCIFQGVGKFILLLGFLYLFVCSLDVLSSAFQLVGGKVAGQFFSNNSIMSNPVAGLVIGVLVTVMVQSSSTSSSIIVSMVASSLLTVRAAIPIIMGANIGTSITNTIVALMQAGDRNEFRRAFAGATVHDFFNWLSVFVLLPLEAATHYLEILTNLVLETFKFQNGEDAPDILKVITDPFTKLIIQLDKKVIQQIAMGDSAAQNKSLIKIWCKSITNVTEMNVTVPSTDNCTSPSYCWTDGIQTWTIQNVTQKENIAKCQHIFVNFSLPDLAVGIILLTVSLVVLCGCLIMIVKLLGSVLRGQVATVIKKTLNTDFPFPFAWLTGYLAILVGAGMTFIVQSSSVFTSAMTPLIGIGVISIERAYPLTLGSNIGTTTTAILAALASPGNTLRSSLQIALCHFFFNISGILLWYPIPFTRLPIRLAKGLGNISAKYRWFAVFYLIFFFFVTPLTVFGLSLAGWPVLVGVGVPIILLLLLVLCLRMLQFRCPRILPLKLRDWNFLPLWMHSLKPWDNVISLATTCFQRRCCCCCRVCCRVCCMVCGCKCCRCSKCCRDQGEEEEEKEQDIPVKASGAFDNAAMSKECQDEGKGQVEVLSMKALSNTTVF
# Test: Acute phosphate uptake into plasma in mice
# Assay type: in vivo
# Conditions: for ED50: mouse, po, read-out: ED50, inhibition of acute phosphate uptake into plasma; for Emax, maximum inhibition of phosphate uptake into plasma: oral
# Protocol: Male C57BL/6 male mice (n = 7–9/group) at the age of about 8–9 weeks (21–29 g) were fasted overnight and throughout the study. Mice were dosed orally with varying doses of LY3358966 SDD dissolved in water or a PVP‐VA vehicle control. Fifteen minutes later, a radioactive phosphate dosing solution (200 µl of 16.25 mM Na2HPO4, 0.9% saline, pH 7.4 supplemented with about one million dpm of H3 ^33PO4) was given by oral gavage. This dose of phosphate was chosen because it approximates the mouse equivalent of the amount of bioavailable phosphate in a human meal which is 4 mg/kg phosphorus, or 320 mg phosphorus for an 80 kg person on a phosphate restricted diet. Fifteen minutes later, blood was collected and radioactivity in the plasma was determined by scintillation counting. The inhibition of acute phosphate uptake into plasma by LY3358966 was determined by comparing the counts in the plasma from LY3358966‐treated animals to that in the plasma of the vehicle‐treated animals. ED50 values were then determined with a 4‐parameter logistic curve fitting model using GraphPad Prism 7.04.
# To test the ability of LY3358966 to inhibit intestinal NPT2b activity in mice over time, the above mice were bled again at 3 h post compound dose to determine the residual radioactivity in the plasma. At 4 h post compound dose, the animals were again dosed with phosphate using threefold more H3 ^33PO4 than used in the first oral dose. Fifteen minutes later, blood was collected and radioactivity in the plasma was used to calculate LY3358966 inhibition of phosphate uptake into plasma. For this calculation, the residual counts at 3 h were first subtracted from the final counts at 4 h. The 3‐h counts were typically <15% of the 4‐h counts.
structure (smiles),measurement,setting,value
"CC1(C)CN(C(=O)NCCCCO)CCN1Cc1cccc(C(=O)Nc2sc3c(c2C(=O)Nc2cc(F)c(CCc4ccc(C(=O)O)cc4)c(F)c2)CCCC3)c1 [LY3358966, 4‐[2‐[2,6‐difluoro‐4‐[[2‐[[3‐[[4‐(4‐hydroxybutylcarbamoyl)‐2,2‐dimethyl‐piperazin‐1‐yl]methyl]benzoyl]amino]‐4,5,6,7‐tetrahydrobenzothiophene‐3‐carbonyl]amino]phenyl]ethyl]benzoic acid]",ED50,15 min post LY3358966 dose,0.15 mg/kg
same,ED50,4 h post LY3358966 dose,1.1 mg/kg
same,"Emax, maximum inhibition of phosphate uptake into plasma",15 min post LY3358966 dose,74%
same,"Emax, maximum inhibition of phosphate uptake into plasma",4 h post LY3358966 dose,79%
